Reference: publication PMC10134273 (Cancer Medicine, 2023)
Like-named read-outs stand apart in the source and are kept apart here.

Tests used:
advanced solid tumors = test: Tumor response per RECIST v1.1; format: in vivo, human
[1] = system: all other kinases (including FGFR1, FGFR2, and FGFR3); details: versus FGFR4; cited from earlier work
[2] = Protocol: (§1) Secondary endpoints included PK parameters (e.g., maximum observed concentration [C max] and area under the concentration‐time curve [AUC]). Secondary endpoints included objective response rate (ORR), disease control rate (DCR), and duration of response (DOR) as assessed by investigator per RECIST v1.1. Tumor responses were assessed according to RECIST v1.1; computerized tomography scanning or magnetic resonance imaging was performed every 6 weeks in the first 48 weeks, and every 12 weeks thereafter. Secondary endpoints also included safety and tolerability (adverse events [AEs] as defined by the National Cancer Institute‐Common Terminology Criteria for Adverse Events CTCAE v5.0) and exploratory biomarkers (total bile acids, 7‐α‐hydroxy‐4‐cholesten‐3‐one [C4] and circulating FGF19). Safety follow‐up visit was performed within 30 days (±5 days) and 90 days (±7 days) after the last dose of the study treatment.
All patients who received at least one dose of the study treatment in the Phase 1 part of the study were included in the safety and efficacy analyses. Dose escalation and MTD assessment were primarily based on DLTs which occurred within the 28‐day observation period. Descriptive statistics were used for demographics, safety, and efficacy data. The number of patients who experienced DLTs (within and outside of the 28‐day DLT assessment period) was tabulated for each dose level. The sample size of patients required for dose escalation were determined based on the ‘3+3’ design and DLTs observed as the trial progressed.

FGFR4 = system: FGFR4; parameters: method as in PMID 32930584; details: kinase biochemical assays; read-out: half-maximal inhibitory concentration (IC50); cited from earlier work
FGFR4 pathway = test: Exploratory biomarkers (total bile acids, C4, circulating FGF19); format: in vivo, human
Protocol: as §1

[3] = system: HCC or solid tumors with positive FGFR4 and KLB expression; details: cited from earlier work
[4] = DLT observation / MTD and RP2D determination (3+3 dose escalation); format: in vivo
Text: After a screening period of up to 28 days, eligible patients received treatment according to a standard “3+3” dose escalation design. […] Treatment continued until unacceptable toxicity, progressive disease, and/or at the discretion of the Investigator or patient's withdrawal of consent.

[5] = 40 mg BID (N=3) + pembrolizumab
[6] = 60 mg BID (N=3) + pembrolizumab
[7] = 80 mg BID (N=6) + pembrolizumab
[8] = 80 mg BID group + pembrolizumab
[9] = 100 mg BID (N=7) + pembrolizumab
[10] = most patients treated with 40, 60, 80, and 100 mg
[11] = CFGF401X2101 trial, Grade ≥3 TEAE

SMILES: COCCNc1cc(NC(=O)N2CCCc3cc(CN4CCN(C)CC4=O)c(C=O)nc32)ncc1C#N [EVER4010001, roblitinib]
- Best overall response: Complete response (advanced solid tumors; [5]): 0 n (%)
- Best overall response: Not evaluable (advanced solid tumors; [5]): 0 n (%)
- Best overall response: Partial response (advanced solid tumors; [5]): 0 n (%)
- Best overall response: Progressive disease (advanced solid tumors; [5]): 1 (33.3) n (%)
- Best overall response: Stable disease (advanced solid tumors; [5]): 2 (66.7) n (%)
- Disease control rate (CR+PR+SD) (advanced solid tumors; [5]): 2 (66.7) n (%)
- Objective response (CR+PR) (advanced solid tumors; [5]): 0 n (%)
- DCR (advanced solid tumors; 40 mg BID group + pembrolizumab): 66.7%
- Best overall response: Complete response (advanced solid tumors; [6]): 0 n (%)
- Best overall response: Not evaluable (advanced solid tumors; [6]): 0 n (%)
- Best overall response: Partial response (advanced solid tumors; [6]): 0 n (%)
- Best overall response: Progressive disease (advanced solid tumors; [6]): 2 (66.7) n (%)
- Best overall response: Stable disease (advanced solid tumors; [6]): 1 (33.3) n (%)
- Disease control rate (CR+PR+SD) (advanced solid tumors; [6]): 1 (33.3) n (%)
- Objective response (CR+PR) (advanced solid tumors; [6]): 0 n (%)
- DCR (advanced solid tumors; 60 mg BID group + pembrolizumab): 33.3%
- Best overall response: Complete response (advanced solid tumors; [7]): 0 n (%)
- Best overall response: Not evaluable (advanced solid tumors; [7]): 1 (16.7) n (%)
- Best overall response: Partial response (advanced solid tumors; [7]): 1 (16.7) n (%)
- Best overall response: Progressive disease (advanced solid tumors; [7]): 2 (33.3) n (%)
- Best overall response: Stable disease (advanced solid tumors; [7]): 2 (33.3) n (%)
- Disease control rate (CR+PR+SD) (advanced solid tumors; [7]): 3 (50.0) n (%)
- Objective response (CR+PR) (advanced solid tumors; [7]): 1 (16.7) n (%)
- DCR (advanced solid tumors; [8]): 50%
- ORR (advanced solid tumors; [8]): 16.7%
- Best overall response: Complete response (advanced solid tumors; [9]): 0 n (%)
- Best overall response: Not evaluable (advanced solid tumors; [9]): 1 (14.3) n (%)
- Best overall response: Partial response (advanced solid tumors; [9]): 0 n (%)
- Best overall response: Stable disease (advanced solid tumors; [9]): 0 n (%)
- Disease control rate (CR+PR+SD) (advanced solid tumors; [9]): 0 n (%)
- Objective response (CR+PR) (advanced solid tumors; [9]): 0 n (%)
- DCR (advanced solid tumors; 100 mg BID group + pembrolizumab): 0%
- ORR (advanced solid tumors; across all doses, + pembrolizumab): 5.3%
- Grade 5 TEAEs related to EVER4010001 and/or pembrolizumab [2, 5]: 0 n (%)
- SAEs: Death [2, 5]: 0 n (%)
- Grade 5 TEAEs related to EVER4010001 and/or pembrolizumab [2, 6]: 0 n (%)
- SAEs: Death [2, 6]: 1 (33.3) n (%)
- Grade 5 TEAEs related to EVER4010001 and/or pembrolizumab [2, 7]: 0 n (%)
- SAEs: Death [2, 7]: 0 n (%)
- Grade 5 TEAEs related to EVER4010001 and/or pembrolizumab [2, 9]: 0 n (%)
- SAEs: Death [2, 9]: 0 n (%)
- Grade 5 TEAEs related to EVER4010001 and/or pembrolizumab ([2]; Total (N=19)): 0 n (%)
- SAEs: Death ([2]; Total (N=19)): 1 (5.3) n (%)
- Any TEAE: Alanine aminotransferase increased ([2]; human, in vivo): 9 (47.4) n (%)
- Any TEAE: Anemia ([2]; human, in vivo): 9 (47.4) n (%)
- Any TEAE: Aspartate aminotransferase increased ([2]; human, in vivo): 11 (57.9) n (%)
- Any TEAE: Gastrointestinal disorders ([2]; human, in vivo): 19 n (%)
- EVER4010001-related TEAEs ([2]; human, in vivo): 19 (100) n (%)
- EVER4010001-related TEAEs: Increased Blood Alkaline Phosphatase ([2]; human, in vivo): 5 (26.3) n (%)
- SAEs: Device dislocation ([2]; human, in vivo): 1 (5.3) n (%)
- SAEs: Product issues ([2]; human, in vivo): 1 (5.3) n (%)
- TEAEs leading to discontinuation: Aspartate aminotransferase increased ([2]; human, in vivo): 2 [10.5%] n (%)
- TEAEs leading to discontinuation: Blood bilirubin increased ([2]; human, in vivo): 1 [5.3%] n (%)
- TEAEs resulting in temporary interruption of EVER4010001 ([2]; human, in vivo): 4 [21.0%] n (%)
- Any TEAE: Anemia ([2]; human, in vivo, 93.4 days): 0 n (%)
- Any TEAE: Diarrhea ([2]; human, in vivo, 93.4 days): 1 (5.3) n (%)
- SAEs: Gastrointestinal disorders ([2]; human, in vivo, 93.4 days): 1 (5.3) n (%)
- SAEs: Pancreatitis ([2]; human, in vivo, 93.4 days): 1 (5.3) n (%)
- TEAEs leading to discontinuation: Aspartate aminotransferase increased ([2]; human, in vivo, 93.4 days): 2 (10.5) n (%)
- TEAEs leading to discontinuation: Blood bilirubin increased ([2]; human, in vivo, 93.4 days): 1 (5.3) n (%)
- TEAEs leading to discontinuation: Investigations ([2]; human, in vivo, 93.4 days): 3 (15.8) n (%)
- TEAEs leading to discontinuation: Vascular disorders ([2]; human, in vivo, 93.4 days): 1 (5.3) n (%)
- TEAEs resulting in temporary interruption of EVER4010001 ([2]; human, in vivo, 93.4 days): 4 (21.0) n (%)
- circulating FGF19 (FGFR4 pathway; [10]): elevated
- plasma C4 (7-α-hydroxy-4-cholesten-3-one) (FGFR4 pathway; [10]): elevated
- increased ALT [3, 11]: 15.0%
- increased AST [3, 11]: 18.8%
- increased ALT ([3]; CFGF401X2101 trial, any grade): 43.8%
- ORR ([3]; CFGF401X2101 trial): 8%
- diarrhea suspected to be related to the study drug ([3]; CFGF401X2101 trial): 69%
- recommended Phase 2 dose (RP2D) ([3]; QD doses 50-150 mg, fasted or unfasted patients): 120 mg QD
- geometric mean Cmax (geometric coefficient of variation %) ([3]; RP2D 120 mg FGF401 QD, CFGF401X2101 trial): 1120 ng/mL
- recommended Phase 2 dose (RP2D) ([3]; in combination with spartalizumab 300 mg Q3W): 120 mg QD
- DLTs during whole study: Alanine aminotransferase increased ([4]; human, in vivo): 1 (5.9) n (%)
- DLTs during whole study: Aspartate aminotransferase increased ([4]; human, in vivo): 2 (11.8) n (%)
- Total DLTs during whole study ([4]; human, in vivo): 2 (11.8) n (%)
- DLTs within 28 days: Alanine aminotransferase increased ([4]; human, in vivo, 28 days): 1 (5.9) n (%)
- DLTs within 28 days: Aspartate aminotransferase increased ([4]; human, in vivo, 28 days): 2 (11.8) n (%)
- Total DLTs within 28 days ([4]; human, in vivo, 28 days): 2 (11.8) n (%)
- maximum tolerated dose (MTD) ([4]; in combination with pembrolizumab 200 mg Q3W): 80 mg BID
